Assay results reported in patent publication US11999728B2, “Estrogen receptor modulators” (Recurium IP Holdings, LLC, priority 2020, dated 2024).
pIC50: −log10 of the molar value.

Key:
[1] = Pharmacokinetic Determination (Mouse PK); format: in vivo, female CD-1 mice; details: female; for Kp at 2 h: CD-1, PO 10.0 mg/kg, Brain concentration vs plasma concentration at 2 hours post dosing, read-out: B/P ratio; for AUC(0-t) / bioavailability / Cmax / Tmax / half-life / clearance / Vd: CD-1, plasma; for bioavailability: PO 10.0 mg/kg vs IV 3.0 mg/kg; for Vd: read-out: Vdss
Method: Pharmacokinetic Determination
Grouping female CD-1 mice weighing 20-30 g randomly to three groups; one group was administered with test compound at a dose of 3.0 mg/kg by intravenous injection, the other two groups were administered with test compound at a dose of 10.0 mg/kg by oral. The formulation for IV groups is DMSO/PEG400/30% HP-β-CD (5/20/75) and the formulation for PO groups is 25% HP-β-CD in 25 mM citrate buffer (pH3.0). After administering, blood samples of intravenous injection group were collected at time points of predose, 0.0833, 0.25, 0.5, 1, 2, 4, 8, 12 and 24 h; blood samples of oral group were collected at time points of predose, 0.25, 0.5, 1, 2, 4, 8, 12, and 24 h. Both blood samples and brain samples were collected at 2 hours post dosing for the second PO group. Standard curve was plotted based on concentrations of the samples in a suitable range, the concentrations of test compounds in plasma samples and brain samples were determined by using LC-MS/MS. Pharmacokinetic parameters were calculated according to drug concentration-time curve using a noncompartmental method by WinNonLin (Phoenix™, version 6.1) or other similar software.

[2] = tested on: MCF7; assay: Breast Cancer Cell Proliferation Assay (MCF-7), Cell Titer-Glo; format: cell-based; details: Homo sapiens, MCF7, 120 h, MCF7 cells, 5 days of compound exposure
In short: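 MCF7 cells in phenol red-free DMEM/F12 with charcoal-stripped FBS exposed 5 days to 10-point dilutions (10–0.000005 μM final), 17β-estradiol as control. Viability by CellTiter-Glo luminescence, background-subtracted and expressed relative to estrogen-only treated cells; day-1 pretreatment wells plated.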

[3] = Plasma and tumor PK analysis post final dosing in MCF-7 orthotopic model; format: in vivo, mouse; details: MCF-7 orthotopic model mice; for Tumor AUC: tumor samples 2 h, 8 h and 24 h post final dosing; for AUC / Kp: mouse; for AUC: plasma, post final dosing, 0.25-24 h; for Kp: tumor AUC vs plasma AUC, read-out: Tumor/Plasma ratio
Method: Plasma samples were collected with seven time points (0.25 h, 0.5 h, 1 h, 2 h, 4 h, 8 h, and 24 h) post final dosing for PK analysis. Tumor samples were collected with three time points (2 h, 8 h and 24 h) post final dosing for PK analysis.

[4] = tested on: MCF-7 Human Breast Cancer Orthotopic Model; assay: Efficacy Study on MCF-7 Human Breast Cancer Orthotopic Model (tumor growth inhibition); format: in vivo, mouse; details: tumor growth inhibition = (1−(Td−T0)/(Cd−C0))×100%; MCF-7 orthotopic model
Method: Efficacy Study on MCF-7 Human Breast Cancer Orthotopic Model
The MCF-7 tumor cell line were maintained in vitro as monolayer culture in DMEM Medium supplemented with 15% heat inactivated fetal bovine serum at 37° C. in an atmosphere of 5% CO2 in air. The medium were renewed every 2 to 3 days and tumor cells were routinely subcultured at a confluence of 80%-90% by trypsin-EDTA, not to exceed 4-5 passages. The cells growing in an exponential growth phase were harvested and counted for tumor inoculation.
Each mouse was inoculated subcutaneously on the 2nd right mammary fat pad with the single cell suspension of 95% viable tumor cells (1.5×10^7) in 200 μL DMEM Matrigel mixture (1:1 ratio) without serum for the tumor development. The treatments were started when mean tumor size reached 195 mm^3.
The measurement of tumor size was conducted twice a week with a caliper and the tumor volume (mm^3) was estimated using the formula: TV=a×b^2/2 throughout the study, where “a” and “b” was long and short diameters of a tumor, respectively. The TVs were used for calculation of the tumor growth inhibition (TGI, an indicator of antitumor effectiveness) value using the formula: (1−(Td−T0)/(Cd−C0))×100%. Td and Cd are the mean tumor volumes of the treated and control animals, and T0 and C0 are the mean tumor volumes of the treated and control animals at the start of the experiment. The tumor regression was defined as individual tumor volume decrease (terminal TV compares to initial TV). The percent tumor regression was calculated using the formula: (1−(Td/T0))×100%.

Row | SMILES | Kp at 2 h [1] | AUC(0-t) ([1]; IV, 3.0 mg/kg) [µM·h] | bioavailability [1] [%] | AUC(0-t) ([1]; PO, 10.0 mg/kg) [µM·h] | Cmax ([1]; PO, 10.0 mg/kg) [nM] | Tmax ([1]; PO, 10.0 mg/kg) [h] | pIC50 [2] | Tumor AUC [3] [ng·h/mL] | AUC [3] [ng·h/mL] | Kp [3] | TGI [4] [%] | half-life ([1]; PO, 10.0 mg/kg) [h] | clearance ([1]; IV, 3.0 mg/kg) [mL/min/kg] | half-life ([1]; IV, 3.0 mg/kg) [h] | Vd ([1]; IV, 3.0 mg/kg) [L/kg]
1 | CCCN1CC(Nc2ccc([C@@H]3c4[nH]c5ccccc5c4C[C@@H](C)N3C34CC(C3)C4)cc2)C1 [Compound 31, N-(4-((1R,3R)-2-(bicyclo[1.1.1]pentan-1-yl)-3-methyl-2,3,4,9-tetrahydro-1H-pyrido[3,4-b]indol-1-yl)phenyl)-1-propylazetidin-3-amine] | 12 | 1.03 | 87.7 | 3 | 240 | 2 | ≥ 7.60 | 360399 | 6780 | 53.1 | 106 | – | – | – | –
2 | C[C@@H]1Cc2c([nH]c3ccccc23)[C@@H](c2c(F)cc(NC3CN(CCCF)C3)cc2F)N1CC(F)(F)CO [GDC9545, reference compound] | 0.17 | – | – | 13.3 | 960 | 4 | ≥ 7.60 | 183743 | 10500 | 17.5 | 130 | 8.66 | – | – | –
3 | C[C@@H]1Cc2c([nH]c3ccccc23)[C@@H](c2c(F)cc(O[C@H]3CCN(CCCF)C3)cc2F)N1C12CC(C1)C2 (single isomer, unassigned) [Compound 6] | 4.42 | 2.93 | 49.5 | 4.84 | 611 | 1 | ≥ 7.60 | – | – | – | – | 9.4 | 30.2 | 9.1 | 16.7
4 | CCCN1CC(Oc2ccc([C@@H]3c4[nH]c5ccccc5c4C[C@@H](C)N3C34CC(C3)C4)cc2)C1 [Compound 39, (1R,3R)-2-(bicyclo[1.1.1]pentan-1-yl)-3-methyl-1-(4-((1-propylazetidin-3-yl)oxy)phenyl)-2,3,4,9-tetrahydro-1H-pyrido[3,4-b]indole] | 11.4 | 1.33 | 29.6 | 1.31 | 224 | 0.5 | ≥ 7.60 | – | – | – | – | 3.95 | 85 | 5.13 | 16
5 | C[C@@H]1Cc2c([nH]c3ccccc23)[C@@H](c2ccc(NC3CN(CCCF)C3)cc2F)N1C12CC(C1)C2 [Compound 15, N-(4-((1R,3R)-2-(bicyclo[1.1.1]pentan-1-yl)-3-methyl-2,3,4,9-tetrahydro-1H-pyrido[3,4-b]indol-1-yl)-3-fluorophenyl)-1-(3-fluoropropyl)azetidin-3-amine] | 10.8 | 0.892 | 47.3 | 1.45 | 200 | 1 | ≥ 7.60 | – | – | – | – | 9.2 | 100 | 10 | 66.4
6 | C[C@@H]1Cc2c([nH]c3ccccc23)[C@@H](c2cnc(NC3CN(CCCF)C3)cn2)N1C12CC(C1)C2 [Compound 16, 5-((1S,3R)-2-(bicyclo[1.1.1]pentan-1-yl)-3-methyl-2,3,4,9-tetrahydro-1H-pyrido[3,4-b]indol-1-yl)-N-(1-(3-fluoropropyl)azetidin-3-yl)pyrazin-2-amine] | – | 2.08 | 39.5 | 2.73 | 590 | 1 | ≥ 7.60 | – | – | – | – | 3.24 | 53.5 | 3.85 | 11.8
7 | C[C@@H]1Cc2c([nH]c3ccccc23)[C@@H](c2ccc(N[C@H]3CCN(CCCF)C3)cc2)N1C12CC(C1)C2 [Compound 42, (S)—N-(4-((1R,3R)-2-(bicyclo[1.1.1]pentan-1-yl)-3-methyl-2,3,4,9-tetrahydro-1H-pyrido[3,4-b]indol-1-yl)phenyl)-1-(3-fluoropropyl)pyrrolidin-3-amine] | 29.4 | 1.51 | 55.4 | 2.79 | 220 | 1 | ≥ 7.60 | 296719 | 5310 | 55.9 | 106 | – | 40 | – | –
